Data set [1] deals with Liver. Briefly: Metabolic stability in rat liver assessed as (2S)-2-((((2R,3R,4R,5R)-5-(2-amino-6-methoxy-9H-purin-9-yl)-4-fluoro-3-hydroxy-4-methyltetrahydrofuran-2-yl)methoxy)(hydroxy)phosphorylamino)propanoic acid level at 60 uCi, po after 6 hrs. In kind it is ADME, organism-based. The following applies: in vivo.
The subject of data set [2] is Liver. In words: Metabolic stability in rat liver assessed as beta-D-2'-Deoxy-2'-R-fluoro-2'-beta-C-methylguanosine level at 60 uCi, po after 6 hrs. The data set is classed as ADME, organism-based. The following applies: in vivo.
Data set [3] concerns Plasma. In words: Metabolic stability in rat plasma assessed as PSI-353661 level at 60 uCi, po after 6 hrs. The data set is classed as ADME, organism-based. The conditions noted are these: in vivo.
The subject of data set [4] is Plasma. Briefly: Metabolic stability in rat plasma assessed as (2S)-isopropyl 2-((((2R,3R,4R,5R)-5-(2-amino-6-methoxy-9H-purin-9-yl)-4-fluoro-3-hydroxy-4-methyltetrahydrofuran-2-yl)methoxy)(phenoxy)phosphorylamino)propanoate level at 60 uCi, po after 1 hr. In kind it is ADME, organism-based. The conditions noted are these: in vivo.
Data set [5] relates to Liver. In words: Metabolic stability in rat liver assessed as ((2R,3R,4R,5R)-5-(2-amino-6-oxo-1H-purin-9(6H)-yl)-4-fluoro-3-hydroxy-4-methyltetrahydrofuran-2-yl)methyl tetrahydrogen triphosphate level at 60 uCi, po after 1 hr. The data set is classed as ADME, organism-based. The following applies: in vivo.
In data set [6] the test system is Liver. Briefly: Metabolic stability in rat liver assessed as beta-D-2'-Deoxy-2'-R-fluoro-2'-beta-C-methylguanosine level at 60 uCi, po after 1 hr. The following applies: in vivo. In kind it is ADME, organism-based.
The subject of data set [7] is Plasma. Briefly: Metabolic stability in rat plasma assessed as beta-D-2'-Deoxy-2'-R-fluoro-2'-beta-C-methylguanosine level at 60 uCi, po after 6 hrs. The data set is classed as ADME, organism-based. The following applies: in vivo.
In data set [8] the test system is Liver. In words: Metabolic stability in rat liver assessed as ((2R,3R,4R,5R)-5-(2-amino-6-oxo-1H-purin-9(6H)-yl)-4-fluoro-3-hydroxy-4-methyltetrahydrofuran-2-yl)methyl trihydrogen diphosphate level at 60 uCi, po after 1 hr. The data set is classed as ADME, organism-based. The following applies: in vivo.
The subject of data set [9] is Plasma. In words: Metabolic stability in rat plasma assessed as beta-D-2'-Deoxy-2'-R-fluoro-2'-beta-C-methylguanosine level at 60 uCi, po after 1 hr. The data set is classed as ADME, organism-based. The conditions noted are these: in vivo.
Data set [10] deals with Liver. In words: Metabolic stability in rat liver assessed as ((2R,3R,4R,5R)-5-(2-amino-6-oxo-1H-purin-9(6H)-yl)-4-fluoro-3-hydroxy-4-methyltetrahydrofuran-2-yl)methyl tetrahydrogen triphosphate level at 60 uCi, po after 6 hrs. In kind it is ADME, organism-based. The following applies: in vivo.
Data set [11] concerns Plasma. In words: Metabolic stability in rat plasma assessed as (2S)-2-((((2R,3R,4R,5R)-5-(2-amino-6-methoxy-9H-purin-9-yl)-4-fluoro-3-hydroxy-4-methyltetrahydrofuran-2-yl)methoxy)(hydroxy)phosphorylamino)propanoic acid level at 60 uCi, po after 6 hrs. The data set is classed as ADME, organism-based. The following applies: in vivo.
In data set [12] the test system is Plasma. In words: Metabolic stability in rat plasma assessed as PSI-353661 level at 60 uCi, po after 1 hr. The data set is classed as ADME, organism-based. The conditions noted are these: in vivo.
Data set [13] relates to Liver. In words: Metabolic stability in rat liver assessed as ((2R,3R,4R,5R)-5-(2-amino-6-oxo-1H-purin-9(6H)-yl)-4-fluoro-3-hydroxy-4-methyltetrahydrofuran-2-yl)methyl dihydrogen phosphate level at 60 uCi, po after 1 hr. In kind it is ADME, organism-based. The following applies: in vivo.
Data set [14] has as its system Liver. In words: Metabolic stability in rat liver assessed as ((2R,3R,4R,5R)-5-(2-amino-6-oxo-1H-purin-9(6H)-yl)-4-fluoro-3-hydroxy-4-methyltetrahydrofuran-2-yl)methyl dihydrogen phosphate level at 60 uCi, po after 6 hrs. In kind it is ADME, organism-based. The conditions noted are these: in vivo.
Data set [15] relates to Plasma. Briefly: Metabolic stability in rat plasma assessed as (2S)-2-((((2R,3R,4R,5R)-5-(2-amino-6-methoxy-9H-purin-9-yl)-4-fluoro-3-hydroxy-4-methyltetrahydrofuran-2-yl)methoxy)(hydroxy)phosphorylamino)propanoic acid level at 60 uCi, po after 1 hr. In kind it is ADME, organism-based. The conditions noted are these: in vivo.
For data set [16], the system named is Plasma. Briefly: Metabolic stability in rat plasma assessed as (2S)-isopropyl 2-((((2R,3R,4R,5R)-5-(2-amino-6-methoxy-9H-purin-9-yl)-4-fluoro-3-hydroxy-4-methyltetrahydrofuran-2-yl)methoxy)(phenoxy)phosphorylamino)propanoate level at 60 uCi, po after 6 hrs. In kind it is ADME, organism-based. The conditions noted are these: in vivo.
Data set [17] relates to Liver. In words: Metabolic stability in rat liver assessed as (2S)-2-((((2R,3R,4R,5R)-5-(2-amino-6-methoxy-9H-purin-9-yl)-4-fluoro-3-hydroxy-4-methyltetrahydrofuran-2-yl)methoxy)(hydroxy)phosphorylamino)propanoic acid level at 60 uCi, po after 1 hr. The data set is classed as ADME, organism-based. The conditions noted are these: in vivo.
For data set [18], the system named is Liver. Briefly: Metabolic stability in rat liver assessed as ((2R,3R,4R,5R)-5-(2-amino-6-oxo-1H-purin-9(6H)-yl)-4-fluoro-3-hydroxy-4-methyltetrahydrofuran-2-yl)methyl trihydrogen diphosphate level at 60 uCi, po after 6 hrs. The data set is classed as ADME, organism-based. The following applies: in vivo.
The next data set deals with Huh-7. Briefly: Increase of cellular triphosphate level in human HuH7 cells at 100 uM after 48 hrs by HPLC analysis. In kind it is functional.
Data set [19] has as its system CCRF-CEM. Briefly: Cytotoxicity against human CEM cells assessed as mitochondrial COX2 DNA level up to 100 uM after 14 days by RT-PCR analysis. The following applies: 336 h. In kind it is cell-based.
The subject of data set [20] is HepG2. In words: Cytotoxicity against human HepG2 cells assessed as mitochondrial rDNA level up to 100 uM after 14 days by RT-PCR analysis. In kind it is cell-based. The conditions noted are these: hepg2, 336 h.
For data set [21], the system named is CCRF-CEM. In words: Cytotoxicity against human CEM cells assessed as mitochondrial rDNA level up to 100 uM after 14 days by RT-PCR analysis. The following applies: 336 h. The data set is classed as cell-based.
Data set [22] in a line: Half life in human plasma. The data set is classed as ADME, cell-free.
A short description of data set [23]: Half life in human liver S9 fraction. The data set is classed as ADME, subcellular.
A short description of data set [24]: Cytotoxicity against human HepG2 cells after 96 hrs by MTS assay. In kind it is cell-based.
Data set [25] relates to Hepatitis C virus. In words: Antiviral activity against HCV harboring NS5B polymerase S282T mutant infected in human HuH7 cells by cell-based replicon assay. The data set is classed as functional, Hepacivirus hominis, Huh-7. For orientation: A replicon is a self-replicating genome or part of one, used to study replication in cells.
Data set [26] in a line: Cytotoxicity against human HuH7 cells after 96 hrs by MTS assay. The data set is classed as cell-based, Huh-7. A general note: Formazan colour is commonly taken as a measure of viable cells.
The next data set relates to Hepatocyte. Briefly: Increase of cellular triphosphate level in human primary hepatocytes cells at 100 uM after 24 hrs by HPLC analysis. In kind it is functional.
The test system of data set [27] is Hepatitis C virus. In words: Antiviral activity against HCV infected in human HuH7 cells by cell-based replicon assay. In kind it is functional, Hepacivirus hominis, Huh-7.
Data set [28] relates to HepG2. In words: Cytotoxicity against human HepG2 cells assessed as mitochondrial COX2 DNA level up to 100 uM after 14 days by RT-PCR analysis. In kind it is cell-based. The following applies: hepg2, 336 h.
Data set [29] is described as follows: Half life in simulated gastrointestinal fluid. In kind it is ADME.
Data set [30] can be described thus: Half life in simulated intestinal fluid. The data set is classed as ADME.
A short description of data set [31]: Cytotoxicity against human CEM cells after 96 hrs by MTS assay. The conditions noted are these: CEM (CCRF-CEM) cells. In kind it is cell-based.
Data set [32] can be described thus: Cytotoxicity against human […] cells after 96 hrs by MTS assay. The data set is classed as cell-based.
Data set [33] relates to Hepatitis C virus. Briefly: Antiviral activity against HCV by cell-based replicon assay. In kind it is functional, Hepacivirus hominis.
A short description of data set [34]: Inhibition of HCV NS5B polymerase. Details: species or system Hepacivirus hominis.

Structures are written as SMILES.

For the compound `[3H]c1nc2c(OC)nc(N)nc2n1[C@@H]1O[C@H](COP(=O)(O)N[C@@H](C)C(=O)OC(C)C)[C@@H](O)[C@@]1(C)F`, the Stability with Liver [1] is 572 cpm; with Liver [2], 11512 cpm; in the data set on Plasma [3], 368 cpm; with Plasma [4], 1160 cpm; in the data set on Liver [5], 384 cpm; in the data set with Liver [6], 4224 cpm. Besides, the Stability with Plasma [7] was 3848 cpm; with Liver [8] it was 988 cpm; in the data set on Plasma [9], 1376 cpm; in the data set with Liver [10], 460 cpm; in the data set with Plasma [11], 288 cpm; in the data set with Plasma [12] it was 1112 cpm. For the same compound, the Stability in the data set with Liver [13] is 1828 cpm; in the data set with Liver [14] it was 1920 cpm; in the data set with Plasma [15], 920 cpm; in the data set with Plasma [16] it was 272 cpm; in the data set on Liver [17], 1648 cpm; with Liver [18], 1620 cpm.

Regarding `C[C@H](NP(=O)(OC[C@H]1O[C@@H](n2cnc3c(O)nc(N)nc32)[C@](C)(F)[C@@H]1O)Oc1ccccc1)C(=O)OC1CCCC1` (stereo partly drawn), the Activity in the data set with Huh-7 was 0.06 mM; in the data set with CCRF-CEM [19] it was “Non-toxic”; with HepG2 [20], “Non-toxic”; in the data set with CCRF-CEM [21], “Non-toxic”; in the data set on Hepatocyte, 0.04 mM; with HepG2 [28], “Non-toxic”. In addition, the half-life (as a rule, how long it takes for the measured level to halve) was greater than 24 h in data set [22], 0.2 h in data set [23], 15 h in data set [29] and greater than 20 h in data set [30]. Moreover, the CC50 at 96 h in [24], in data set [26], in data set [31] and in [32] was greater than 100 µM in each case. For the same compound, the EC90 (in general, the concentration at which the effect reaches the 90% level) in the data set with Hepatitis C virus [25] (Hepatitis C virus, Huh-7) amounted to 0.12 µM; in the data set on Hepatitis C virus [27] (Hepatitis C virus, Huh-7) it was 0.18 µM.

On to `COC(=O)[C@H](C)NP(=O)(OC[C@H]1O[C@@H](n2cnc3c(N4CCC4)nc(N)nc32)[C@](C)(F)[C@@H]1O)Oc1ccccc1` (stereo partly drawn), for which the Activity was 0.16 mM in the data set with Huh-7; “Non-toxic” in the data set with CCRF-CEM [19]; “Non-toxic” in the data set on HepG2 [20]; “Non-toxic” with CCRF-CEM [21]; 0.05 mM in the data set on Hepatocyte; “Non-toxic” in the data set with HepG2 [28]. Moreover, the half-life in data set [22] was 11.6 h; in data set [23], 0.4 h; in [29], greater than 20 h; in data set [30], greater than 20 h. The half-maximal cytotoxic concentration (CC50) (commonly the concentration at which the toxic effect on the cells reaches its halfway point) at 96 h was greater than 100 µM in [24], greater than 100 µM in data set [26], 75 µM in [31] and greater than 100 µM in [32]. The EC90 is 0.04 µM with Hepatitis C virus [25] (Hepatitis C virus, Huh-7) and 0.09 µM with Hepatitis C virus [27] (Hepatitis C virus, Huh-7).

The compound `C[C@@]1(F)[C@H](O)[C@@H](CO)O[C@H]1n1cnc2c(O)nc(N)nc21` had an EC90 in the data set on Hepatitis C virus [33] of 69.2 µM.

For the compound `C[C@@]1(F)[C@H](O)[C@@H](COP(=O)(O)OP(=O)(O)OP(=O)(O)O)O[C@H]1n1cnc2c(=O)[nH]c(N)nc21` [PSI-352666], 5.94 µM corresponded to half-maximal inhibition in data set [34] (IC50).

Regarding `COc1nc(N)nc2c1ncn2[C@@H]1O[C@H](COP(=O)(N[C@@H](C)C(=O)OC(C)C)Oc2ccccc2)[C@@H](O)[C@@]1(C)F` (stereo in doubt; 23), the Activity in the data set on Huh-7 is on record as 0.12 mM; in the data set on CCRF-CEM [19], “Non-toxic”; in the data set on HepG2 [20], “Non-toxic”; with CCRF-CEM [21] it was “Non-toxic”; in the data set with Hepatocyte, 0.12 mM; in the data set with HepG2 [28], “Non-toxic”. Also, the half-life in data set [22] was greater than 24 h; in data set [23], 0.2 h; in data set [29], 14 h; in [30], greater than 20 h. Moreover, the CC50 at 96 h in [24] is 62 µM; in [26], greater than 100 µM; in data set [31], greater than 100 µM; in [32], greater than 100 µM. Further, the EC90 amounted to 0.024 µM in the data set on Hepatitis C virus [25] and 0.02 µM in the data set with Hepatitis C virus [27].

Source of the values: ChEMBL document CHEMBL1671830, “Discovery of PSI-353661, a Novel Purine Nucleotide Prodrug for the Treatment of HCV Infection” (ACS Med Chem Lett, 2011).
